Results reported in patent publication US9624485B2, “Genetic incorporation of unnatural amino acids into proteins in mammalian cells” (The Scripps Research Institute, priority 2006, dated 2017).

Columns and labels:
[1] = test system: position 37 of GFP; experiment: Fidelity of unnatural amino acid incorporation by nano-RP LC/MS/MS and ESI TOF-MS; conditions: for wild type peptide signals in tandem MS of mutant GFP: nano-RP LC/MS/MS of tryptic fragments, T-REx CHO cells
Source text: To further characterize GFP-pMpa, the mutant protein was expressed in T-REx™ CHO cells transiently transfected with both pSWAN-pMpaRS and pSWAN-GFP37TAG. The protein was purified using an anti-myc antibody agarose column and then separated by SDS-PAGE. The GFP-pMpa band from the SDS-PAGE gel was digested with trypsin and analyzed by nanoscale reversed-phase liquid chromatography/mass spectrometry/mass spectrometry (nano-RP LC/MS/MS). In parallel, wild type GFP was purified from cells transfected with pcDNA4-GFP and subjected to the same analysis.
Proteolysis of affinity purified proteins (performed for wild-type and pBpa samples) was carried out by overnight incubation of proteins at 37° C. with sequencing-grade modified trypsin (Promega) using a substrate/enzyme ratio of 10:1 (wt/wt) based on the estimated protein concentration in 100 mM triethylammonium bicarbonate buffer (pH 8.5). In-gel digestions (performed for pMpa, pAzpa, pApa, and pPpa samples) were performed according to a modified EMBL procedure (see the website for EMBL, Heidelberg, Germany, Bioanalytical Research Group). Briefly, gel slices were excised to approximately 1 mm×1 mm cubes, washed for 5 minutes with water, 15 minutes with acetonitrile, and dried in a vacuum centrifuge before being rehydrated at 0° C. for 30 minutes with 12.5 ng/μl of sequencing-grade modified trypsin in 50 mM triethylammonium bicarbonate buffer (pH 8.5). Excess buffer was removed and 20 μl of 50 mM triethylammonium bicarbonate buffer (pH 8.5) was added to the gel slices before incubating at 37° C. overnight. Peptides were extracted from the gel slices as described in the protocol.
Nano-RP LC/MS/MS was performed with an HPLC pump, autosampler (Agilent Technologies, Palo Alto, Calif.), and an LTQ Orbitrap hybrid mass spectrometer (ThermoElectron, San Jose, Calif.). Tryptic digests were loaded with a pressure bomb onto a 75 μm i.d. precolumn packed with 4 cm of 5-μm Monitor C18 particles (Column Engineering, Ontario, Calif.) at a flow rate of approximately 2 μl/min. The precolumn was then connected to the HPLC pump and after several minutes of washing with solvent A the analytical column with integrated emitter tip (360 μm O.D.×75 μm i.d; 10 cm of 5 μM C18, ˜5-μm tip) was connected in series. The chromatographic profile was from 100% solvent A (0.1% aqueous acetic acid) to 50% solvent B (0.1% acetic acid in acetonitrile) in 40 min; the flow rate through the analytical column was ca. 100 nl/min.
For data-dependent experiments, the mass spectrometer was programmed to first record a high-resolution Orbitrap scan then a full-scan ion trap spectrum (m/z 500-2,000). This was followed by 10 data-dependent MS/MS scans (relative collision energy=35%; 3-Da isolation window) triggered of the ion-trap scan and finally two targeted MS/MS scans. The first targeted MS/MS scan was set to isolate and fragment the doubly charged precursor ion of the predicted unnatural amino acid modified peptide
at m/z 752.3. The raw data were searched against the MSDB database using MASCOT (Matrixscience, London, UK) for protein identification and to find the scans containing the target peptides with the unnatural amino acids as variable modification. To estimate fidelity at Y*37 of GFP-pMpa, single ion chromatograms (doubly charged precursor ions at m/z 752.3 for the wt and 759.3 for pMpa) and selected ion chromatograms (y9, y11, and y12) were integrated using the Xcalibur software package (ThermoElectron, San Jose, Calif.).
Intact protein mass spectra were acquired on an automated LC/MS system (Waters, Milford, Mass.) consisting of a capillary LC with auto-sampler and a QTOF2 mass spectrometer. GFP-pMpa (0.1 mg/ml) was loaded onto a reversed-phase protein Captrap (Michrom Bioresources, Auburn, Calif.) for desalting with 0.1% acetic acid in water and eluted with 80% acetonitrile/0.1% acetic acid at 5 μl/min into the ESI source of the mass spectrometer. […]

[2] = test system: amber codon in GFP37TAG in T-REx 293 cells; experiment: Amber suppression of GFP37TAG by BstRNACUA^Tyr/EcTyrRS variants, Western blot of full-length GFP; format: cell-based, human; conditions: 8 mM in media, 48 hours
Method: (§1) The ability of the six EcTyrRS variants together with BstRNACUA^Tyr to suppress the amber codon in GFP37TAG was then tested in the presence and absence of unnatural amino acids in the growth media. Transient transfection of cells with plasmids was carried out as described for wild type EcTyrRS. Six hours after transfection, the media were replaced by the fresh media containing 1 μg/ml tetracycline and supplemented with the corresponding unnatural amino acid (pMpa, 10 mM; pApa, 10 mM; pBpa, 1 mM; plpa, 8 mM; pAzpa, 5 mM; or pPpa, 1 mM). Cells were then grown 24 hours for T-REx™ CHO cell lines and 48 hours for T-REx™ 293 cell lines before harvesting. In both T-REx™ CHO and 293 cells, the expression of full length GFP37TAG was dependent upon the presence of unnatural amino acids in the growth media as indicated in FIG. 2 and FIG. 3. […]
(§2) For Western blot analysis, harvested cells were lysed in RIPA buffer (Upstate Biotechnology/Millipore) with a 1:100 dilution of protease inhibitor cocktail (Sigma). […] Chemiluminescence was then detected with PIERCE ECL Western Blotting substrate. For T-REx™ 293 cells, the membranes were probed with anti-His-HRP (Invitrogen™; 1:5000 dilution) and then detected with PIERCE ECL Western Blotting substrate.

[3] = test system: amber codon in GFP37TAG in T-REx CHO cells; experiment: as above; format: cell-based, Chinese hamster; conditions: 8 mM in media, 24 hours
Method: as §1, §2

[4] = test system: T-REx 293 cells; experiment: Cellular toxicity of the unnatural amino acid in growth media; format: cell-based, human; conditions: 8 mM in media

CC(=O)c1ccc(C[C@H](N)C(=O)O)cc1 [pApa, p-acetyl-L-phenylalanine] was tested, and the “wild type peptide signals in tandem MS of mutant GFP” value (shortened to “wild type peptide signals”) [1] was “No wild type signals could be detected”.
With [N-]=[N+]=Nc1ccc(C[C@H](N)C(=O)O)cc1 [pAzpa, p-azido-L-phenylalanine] the “stability of the azido amino acid in mutant GFP seen by tandem MS” value ([1]; mutant GFP containing pAzpa) was “Most of pAzpa decays to pAmpa” and the “wild type peptide signals” value [1] was “No wild type signals could be detected”.
N[C@@H](Cc1ccc(C(=O)c2ccccc2)cc1)C(=O)O [pBpa, p-benzoyl-L-phenylalanine] was tested, and the “wild type peptide signals” value [1] was “trace amount of the wild type peptide”.
COc1ccc(C[C@H](N)C(=O)O)cc1 [pMpa, p-methoxy-L-phenylalanine] was tested, and the “wild type GFP signals in intact protein ESI TOF-MS” value ([1]; affinity purified GFP-pMpa) was “No wild type GFP signals”.
For C#CCOc1ccc(C[C@H](N)C(=O)O)cc1 [pPpa, p-propargyloxyphenylalanine], the “wild type peptide signals” value [1] was “No wild type signals could be detected”.
In the case of N[C@@H](Cc1ccc(I)cc1)C(=O)O [plpa, p-iodo-L-phenylalanine], the “expression of GFP containing the unnatural amino acid” value [2] is reported as “no GFP expression”, the “expression level of GFP containing the unnatural amino acid” value [3] is reported as “low expression level” and the “time until cells die (cellular toxicity)” value [4] is reported as 6 h.
